Measured values from patent US9969715B2, “Compounds useful for treating cancer” (ABIVAX, priority 2012, dated 2018).

Tests used:
[1] = tested on: MDA-MB231-luc-D3H2LN cells; test: Viability (MTS) assay on the cells in collagen under invasion assay conditions; format: cell-based, human; details: loss of viability at the concentration giving 0.5 × effect of 10 μM Y-27632, invasion assay conditions
Experimental: (§1) Viability assay, fixation and staining: Following another 24 h incubation, an MTS assay is performed directly on the cells in the collagen. Then, cells are fixed and nuclei are stained.
(§2) In order to detect possible toxic effects, all compounds are tested in parallel in a viability assay. The viability assay is performed in parallel on serum-starved cells (as in the invasion assay) vs. cells under normal culture conditions (10% FBS).
Viability Assay: MTS Assay:
add each 33 μl/well of the MTS reagent, incubate 3-4 h at 37° C./5% CO2
read absorbance at 490 nm (proportional to the viability)
calculate the background-corrected signals by subtracting the means of the background signals in absence of cells from the corresponding signals in presence of cells
normalize the background-corrected signals with respect to the mean signal of the negative controls (no drug) (viabilities are thus expressed in “% of control”)
(§3) Final analysis: Determine the concentration at which a given compound has 50% of the anti-invasive effect of the positive control (10 μM Y-27632). Determine the toxicity (=loss of viability) of the compound under these conditions.

human PBMC = test: Toxicity assay under normal cell culture conditions (MTS), PBMC; format: cell-based; details: human PBMC, RPMI+10% FBS+IL-2, 72 h incubation, MTS
Experimental: (§4) Toxicity Assays (Under Normal Cell Culture Conditions):
(§5) Compounds were prepared as for the invasion assay, and then added to either MDA-MB231-luc-D3H2LN cells (2000/well) under normal culture conditions (MEM+10% FBS), or human PBMC (75000/well, in RPMI+10% FBS+IL-2) in standard 96-well tissue culture plates. After 72 h incubation, a standard MTS assay was performed according to the manufacturer's instructions (Promega Ref. G3581). Compounds were tested at various concentrations (concentration-response curves) in order to determine the concentrations at which 50% toxicity is obtained.

[2] = tested on: MDA-MB231-luc-D3H2LN cells; test: Invasion of MDA-MB231-D3H2LN cells into collagen (example 15 = procedure 2, 48 h drug pre-incubation); format: cell-based; details: concentration giving 50% of the anti-invasive effect of 10 μM Y-27632; 48 h pre-incubation, 24 h with 5% FBS; read-out: MDA: Inhib. of invasion: 0.5 × eff. of 10 μM Y-27632 at (μM) av
Experimental: Effect of Drug Compounds on Invasion of MDA-MB231-D3H2LN Cells into Collagen
Preparation of cells at the bottom of a collagen gel: Cells are suspended in a liquid collagen solution (4° C.), distributed into BSA-coated wells, and then collected at the bottom of the wells by centrifugation. The collagen is then solidified by incubation at 37° C. The BSA coating improves the adhesion of the collagen gel.
Pre-treatment with the compounds to be tested: Concentrated drug solutions are then added on top of the collagen, and cells are pre-incubated for 48 h with the drugs at low serum conditions (0.025% FBS).
Stimulation of invasion: Medium with 5% FBS is then added in order to stimulate invasion of the cells into the collagen gel.
as §1
Analysis: Finally, plates are analyzed using an automated microscope. Fluorescent beads that have been included into the BSA coating serve to detect the bottom of the wells. Pictures of the stained nuclei are taken at the same level (0 μm) as well as 25 μm and 50 μm above.
Negative control: No drug (just DMSO at equivalent concentration). Positive control: 10 μM Y-27632. To avoid edge effects, cells are added only to the 60 central wells B2-G11; lines A and H receive only collagen without cells (blank for the MTS assay) columns 1 and 12 remain free. Each drug is tested at least in triplicate. The positive and negative controls should be tested in several triplicates at different positions on each plate. Typical plate map (−=negative control, +=positive control, 1-12=12 different test conditions, i. e. different drug compounds or concentrations):
Preparation of 4× concentrated drug solutions in MEM+0.1% FBS+2% Lutrol E-400+0.8% DMSO: Mix each 620 μl MEM+0.1% FBS+2% Lutrol E-400 with each 4 μl DMSO+each 1 μl of the 50 mM compound stock solutions (yielding […] and 0.8% DMSO). If the desired final compound concentration is <5 μM, then further dilute in MEM+0.1% FBS+0.8% DMSO. Negative control: MEM+0.1% FBS+2% Lutrol E-400+0.8% DMSO without any drug. Preparation of the positive control: Mix 4.5 ml MEM+0.1% FBS+2% Lutrol E-400+[…] with 36 μl 5 mM Y-27632 (freshly thawed aliquot) (yielding 40 μM).
add each 33 μl/well of the 4× concentrated drug solutions in MEM+0.1% FBS+2% Lutrol E-400+0.8% DMSO to the corresponding wells (yields 1× concentrated drugs in MEM+0.025% FBS+0.5% Lutrol E-400+0.2% DMSO final)
incubate 48 h at 37° C./5% CO2
incubate 24 h at 37° C./5% CO2
for each well, calculate the mean invasion distance of the counted cells: (25 μm×number of cells at 25 μm+50 μm×number cells at 50 μm)/sum of cells at 0, 25 and 50 μm
invalidate any replicate with a CV≥50% (compound to be re-tested, or assay to be repeated if CV≥50% for the untreated negative control or the compound Y-27632-treated positive control). Y27632 is a selective inhibitor of the Rho-associated protein kinase p160ROCK of the following formula
validate the assay only if the mean invasion distance of the cells treated with 10 μM Y-27632 (positive control) is decreased by ≥40% as compared to the untreated negative control
as §3
Here, invasion (into collagen) is the concentration of the compound necessary to reach 50% of the inhibition effect compared to 10 μM Y-27632.
Standard operating procedure 2 is exactly the same as the procedure as described in example 15.

[3] = tested on: MDA-MB231-luc-D3H2LN cells; test: Toxicity assay under normal cell culture conditions (MTS), MDA cells; format: cell-based, human; details: MDA-MB231-luc-D3H2LN cells, MEM+10% FBS, 72 h incubation, MTS
Experimental: as §2, §4, §5

| IC50 [2] [µM] | SMILES | (+ MDA tox. under these cond.) % tox [1] [%] | PBMC tox.: 50% tox. at (μM) av (human PBMC) | MDA tox: 50% tox. at (μM) av [3] |
| --- | --- | --- | --- | --- |
| 2.8 | O=C(Nc1ccncn1)c1cccc(Nc2cccc(S(=O)(=O)NCCCN3CCCCC3)c2)c1 [Compound 27, 3-((3-(N-(3-(piperidin-1-yl)propyl)sulfamoyl)phenyl)amino)-N-(pyrimidin-4-yl)benzamide] | <10 | 61 µM | 66 µM |
| 0.26 | O=C(NCCCN1CCCC1)c1cccc(Nc2cccc(C(=O)Nc3ccncn3)c2)c1 [Compound 28, N-(pyrimidin-4-yl)-3-((3-((3-(pyrrolidin-1-yl)propyl)carbamoyl)phenyl)amino)benzamide] | <10 | 49 µM | 35 µM |
| 0.1 | CN1CCN(CCCNC(=O)c2cccc(Nc3cccc(C(=O)Nc4ccncn4)c3)c2)CC1 [Compound 31, N-(3-(4-methylpiperazin-1-yl)propyl)-3-((3-(pyrimidin-4-ylcarbamoyl)phenyl)amino)benzamide] | <10 | 92 µM | 95 µM |
| < 0.5 | CCN(CC)CCCNC(=O)c1cccc(Nc2cccc(C(=O)Nc3ccncn3)c2)c1 [Compound 25, N-(3-(diethylamino)propyl)-3-((3-(pyrimidin-4-ylcarbamoyl)phenyl)amino)benzamide] | <10 | 88 µM | 46 µM |
| 0.3 | CN1CCN(CCCNC(=O)c2cccc(Nc3cc(C(=O)Nc4ccncc4)ccn3)c2)CC1 [Compound 51, 2-((3-((3-(4-methylpiperazin-1-yl)propyl)carbamoyl)phenyl)amino)-N-(pyridin-4-yl)isonicotinamide] | <10 | >100 µM | ≥100 µM |
| 1.45 | CN1CCN(CCCNC(=O)c2ccnc(Nc3cccc(C(=O)N(C)c4ccncc4)c3)c2)CC1 [Compound 39, 2-((3-(methyl(pyridin-4-yl)carbamoyl)phenyl)amino)-N-(3-(4-methylpiperazin-1-yl)propyl)isonicotinamide] | <10 | 74 µM | 19 µM |
| 2.13 | CCN(CC)CCCNC(=O)c1ccnc(Nc2cccc(C(=O)Nc3ccncc3)c2)c1 [Compound 33, N-(3-(diethylamino)propyl)-2-((3-(pyridin-4-ylcarbamoyl)phenyl)amino) isonicotinamide] | <10 | 130 µM | 118 µM |
| 0.85 | CN1CCN(CCCNC(=O)c2cccc(Nc3cccc(C(=O)N(C)c4ccncc4)c3)c2)CC1 [Compound 20, N-methyl-3-((3-((3-(4-methylpiperazin-1-yl)propyl)carbamoyl)phenyl)amino)-N-(pyridin-4-yl)benzamide] | <10 | >100 µM | >100 µM |
| 1.88 | O=C(NCCCN1CCCC1)c1cccc(Nc2cc(C(=O)Nc3ccncc3)ccn2)c1 [Compound 50, N-(pyridin-4-yl)-2-((3-((3-(pyrrolidin-1-yl)propyl)carbamoyl)phenyl)amino) isonicotinamide] | <10 | >100 µM | ≥100 µM |
| 0.15 | O=C(NCCCN1CCCCC1)c1cccc(Nc2cccc(C(=O)Nc3ccncn3)c2)c1 [Compound 29, N-(3-(piperidin-1-yl)propyl)-3-((3-(pyrimidin-4-ylcarbamoyl)phenyl)amino)benzamide] | <10 | 44 µM | 33 µM |
| 3.75 | CCN(CC)CCCNC(=O)c1ccnc(Nc2cccc(C(=O)N(C)c3ccncc3)c2)c1 [Compound 38, N-(3-(diethylamino)propyl)-2-((3-(methyl(pyridin-4-yl)carbamoyl)phenyl)amino)isonicotinamide] | <10 | >>100 μM | >>100 μM |
| 3.55 | CN(C(=O)c1cccc(Nc2cccc(S(=O)(=O)NCCCN3CCCCC3)c2)c1)c1ccncc1 [Compound 24, N-methyl-3-((3-(N-(3-(piperidin-1-yl)propyl)sulfamoyl)phenyl)amino)-N-(pyridin-4-yl)benzamide] | <10 | ≥100 µM | >100 µM |
| 3.6 | CCN(CC)CCCNS(=O)(=O)c1cccc(Nc2cccc(C(=O)Nc3ccncn3)c2)c1 [Compound 26, 3-((3-(N-(3-(diethylamino)propyl)sulfamoyl)phenyl)amino)-N-(pyrimidin-4-yl)benzamide] | <10 | 85 µM | 73 µM |
| 0.2 | CN1CCN(CCCNC(=O)c2ccnc(Nc3cccc(C(=O)Nc4ccncn4)c3)c2)CC1 [Compound 42, N-(3-(4-methylpiperazin-1-yl)propyl)-2-((3-(pyrimidin-4-ylcarbamoyl)phenyl)amino)isonicotinamide] | <10 | >100 µM | ≥100 µM |
| 2.25 | CN(C(=O)c1cccc(Nc2cccc(C(=O)NCCCN3CCOCC3)c2)c1)c1ccncc1 [Compound 22, N-methyl-3-((3-((3-morpholinopropyl)carbamoyl)phenyl)amino)-N-(pyridin-4-yl)benzamide] | <10 | >100 µM | >100 µM |
| 0.16 | CN1CCN(CCCNC(=O)c2cccc(Nc3cccc(C(=O)Nc4ccncc4)c3)c2)CC1 [Compound 6, N-(3-(4-methylpiperazin-1-yl)propyl)-3-((3-(pyridin-4-ylcarbamoyl)phenyl)amino)benzamide] | <10 | 100 µM | 58 µM |
